US20260085073A1, “PYRAZOLYLCARBOXAMIDE COMPOUNDS AND THEIR USE IN THERAPY” (Hotspot Therapeutics, Inc., priority 2022, published 2026)

Each compound was assayed against T1, MALT1 (Homo sapiens, UniProt Q9UDY8) (assay: MALT1 inhibition assay (MALT-1 Fluorogenic Peptide Cleavage Assay, Ac-LRSR-AMC substrate)). Settings: Avi-tagged FL MALT-1, 30 min pre-incubation, 90 min reaction at room temperature, fluorescence intensity.
T1 construct: Avi-tagged FL MALT-1 (Pharmaron, stored at −70° C.); Avi-tag
T1 sequence (Q9UDY8 1-824): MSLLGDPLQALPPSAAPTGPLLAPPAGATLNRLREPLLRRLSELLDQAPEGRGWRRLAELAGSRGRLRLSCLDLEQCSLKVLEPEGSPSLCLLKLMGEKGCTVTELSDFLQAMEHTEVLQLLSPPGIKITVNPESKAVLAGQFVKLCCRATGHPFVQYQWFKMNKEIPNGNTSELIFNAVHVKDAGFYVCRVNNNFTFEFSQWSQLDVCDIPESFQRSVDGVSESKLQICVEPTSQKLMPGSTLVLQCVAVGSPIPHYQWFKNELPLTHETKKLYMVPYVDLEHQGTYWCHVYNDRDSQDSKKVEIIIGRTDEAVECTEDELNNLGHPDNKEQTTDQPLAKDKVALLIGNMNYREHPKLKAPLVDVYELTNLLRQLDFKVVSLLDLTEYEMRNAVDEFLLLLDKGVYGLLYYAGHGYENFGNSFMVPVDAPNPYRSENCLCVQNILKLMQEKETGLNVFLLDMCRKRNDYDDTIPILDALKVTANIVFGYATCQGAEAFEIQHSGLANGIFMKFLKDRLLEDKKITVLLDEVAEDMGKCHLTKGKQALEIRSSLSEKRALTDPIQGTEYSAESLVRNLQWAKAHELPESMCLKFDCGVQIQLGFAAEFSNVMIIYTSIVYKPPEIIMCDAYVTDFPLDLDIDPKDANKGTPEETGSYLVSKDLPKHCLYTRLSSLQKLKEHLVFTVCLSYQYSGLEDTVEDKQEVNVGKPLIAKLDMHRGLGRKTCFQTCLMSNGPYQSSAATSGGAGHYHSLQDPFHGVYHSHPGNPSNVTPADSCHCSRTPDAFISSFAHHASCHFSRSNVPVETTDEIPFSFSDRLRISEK
Type: biochemical
Method in brief: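 Full-length Avi-tagged MALT1 pre-incubated 30 min at room temperature with compounds (2% DMSO final) in HEPES pH 6.89, sodium citrate, TCEP, EDTA, CHAPS buffer. Ac-LRSR-AMC added from 50 µM (Km) or […] working stocks; 90 min at room temperature, AMC fluorescence (ex 342/em 441 nm); IC50 from % inhibition curves.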

IC50 [nM]	Compound
< 500	Cn1nc(-c2cccc3ccoc23)c(C(F)(F)F)c1C(=O)Nc1cnc(-n2nccn2)c(C(F)F)c1 [Compound I-128]
< 500	Cn1nc(-c2cccc3ccoc23)c(C(F)(F)F)c1C(=O)Nc1cnc(-n2nccn2)c(Cl)c1 [Compound I-129]
500 to 2500	Cn1nc(OCc2ccccc2)c(C(F)(F)F)c1C(=O)Nc1ccnc(C(F)(F)F)c1 [Compound I-130]
< 500	Cn1nc(-c2cccc3c(=O)[nH]ccc23)c(C(F)(F)F)c1C(=O)Nc1cnc(-n2nccn2)c(C(F)F)c1 [Compound I-131]
< 500	Cn1nc(-c2cccc3c(=O)[nH]ccc23)c(C(F)(F)F)c1C(=O)Nc1cnc(-n2nccn2)c(C(F)(F)F)c1 [Compound I-132]
< 500	Cn1nc(-c2cccc3c(=O)[nH]ccc23)c(C(F)(F)F)c1C(=O)Nc1cnc(-n2nccn2)c(Cl)c1 [Compound I-133]
2500 to 10000	Cn1nc(-c2ccccc2)c(C(F)(F)F)c1C(=O)Nc1ccnc(C2CC2)c1 [Compound I-134]
500 to 2500	Cc1cc(NC(=O)c2c(C(F)(F)F)c(-c3ccccc3)nn2C)cnc1-n1nccn1 [Compound I-135]
2500 to 10000	Cc1cc(NC(=O)c2c(C(F)(F)F)c(-c3ccccc3)nn2C)cnc1-n1ccnn1 [Compound I-136]
> 10000	Cn1nc(-c2ccccc2)c(C(F)(F)F)c1C(=O)Nc1cc(C2CC2)ccn1 [Compound I-137]
500 to 2500	Cn1nc(-c2ccccc2)c(C(F)(F)F)c1C(=O)Nc1cc(C(F)(F)F)ccn1 [Compound I-138]
< 500	Cn1nc(-c2cccc3cnccc23)c(C(F)(F)F)c1C(=O)Nc1cnc(-n2nccn2)c(Cl)c1 [Compound I-140, N-(5-chloro-6-(2H-1,2,3-triazol-2-yl)pyridin-3-yl)-3-(isoquinolin-5-yl)-1-methyl-4-(trifluoromethyl)-1H-pyrazole-5-carboxamide]
2500 to 10000	COc1ncc(NC(=O)c2c(C(F)(F)F)c(-c3cccc4ncccc34)nn2C)cc1C#N [Compound I-141]
< 500	Cn1nc(C(=O)Nc2cnc(-n3nccn3)c(Cl)c2)c(C(F)(F)F)c1-c1cccc2c1OCO2 [Compound I-142]
500 to 2500	Cn1nc(Cc2ccccc2)c(C(F)(F)F)c1C(=O)Nc1cnc(-n2nccn2)c(Cl)c1 [Compound I-143]
< 500	Cn1nc(-c2cccc3c2OCO3)c(C(F)(F)F)c1C(=O)Nc1cnc(-n2nccn2)c(Cl)c1 [Compound I-144]
< 500	Cn1nc(-c2cccc3occc23)c(C(F)(F)F)c1C(=O)Nc1cnc(-n2nccn2)c(Cl)c1 [Compound I-145]
< 500	Cn1nc(-c2cccc3occc23)c(C(F)(F)F)c1C(=O)Nc1cnc(-n2nccn2)c(C(F)(F)F)c1 [Compound I-146]
< 500	Cn1nc(-c2ccccc2)c(C(F)(F)F)c1C(=O)Nc1ccnc(C(F)(F)F)c1 [Compound I-147, 1-methyl-3-phenyl-4-(trifluoromethyl)-N-(2-(trifluoromethyl)pyridin-4-yl)-1H-pyrazole-5-carboxamide]
< 500	Cn1nc(C(=O)Nc2cnc(-n3nccn3)c(Cl)c2)c(C(F)(F)F)c1-c1ccccc1 [Compound I-148]
> 10000	Cn1nc(C(=O)Nc2ccc(C(=O)N3CC(O)C3)c(Cl)c2)c(C(F)(F)F)c1-c1ccccc1 [Compound I-149]
2500 to 10000	Cn1nc(-c2ccccc2)c(C(F)(F)F)c1C(=O)Nc1ccc(C(=O)N2CC(O)C2)c(Cl)c1 [Compound I-150]
< 500	Cn1nc(-c2ccccc2)c(C(F)(F)F)c1C(=O)Nc1cnc(-n2nccn2)c(C(F)(F)F)c1 [Compound I-151]

IC50 [nM]	Compound
< 500	Cn1nc(-c2ccccc2)c(C(F)(F)F)c1C(=O)Nc1cnc(-n2nccn2)c(Cl)c1 [Compound I-152]
< 500	Cn1nc(-c2ccccc2)c(C(F)(F)F)c1C(=O)Nc1cnc(-n2nccn2)c(C#N)c1 [Compound I-153]
< 500	Cn1nc(-c2cccc3c2OC(F)(F)O3)c(C(F)(F)F)c1C(=O)Nc1cnc(-n2nccn2)c(Cl)c1 [Compound I-154]
> 10000	Cn1nc(C(=O)Nc2ccc(C(=O)N3CC(O)C3)c(Cl)c2)cc1-c1ccccc1 [Compound I-155]
< 500	COc1ncc(NC(=O)c2c(C(F)(F)F)c(-c3cccc4ccoc34)nn2C)cc1C#N [Compound I-156]
< 500	Cn1nc(-c2cccc3c(=O)[nH]ccc23)c(C(F)(F)F)c1C(=O)Nc1cnc(-n2nccn2)c(C#N)c1 [Compound I-157]
< 500	Cn1nc(-c2cccc3c2OCC3)c(C(F)(F)F)c1C(=O)Nc1ccnc(C(F)(F)F)c1 [Compound I-158, 3-(2,3-dihydrobenzofuran-7-yl)-1-methyl-4-(trifluoromethyl)-N-(2-(trifluoromethyl)pyridin-4-yl)-1H-pyrazole-5-carboxamide]
< 500	Cn1nc(-c2cccc3c2OCC3)c(C(F)(F)F)c1C(=O)Nc1cnc(-n2nccn2)c(Cl)c1 [Compound I-159]
500 to 2500	Cn1nc(-c2cncc3ccccc23)c(C(F)(F)F)c1C(=O)Nc1ccnc(C(F)(F)F)c1 [Compound I-160]
500 to 2500	Cn1nc(-c2cccc3ncnn23)c(C(F)(F)F)c1C(=O)Nc1ccnc(C(F)(F)F)c1 [Compound I-162, 3-([1,2,4]triazolo[1,5-a]pyridin-5-yl)-1-methyl-4-(trifluoromethyl)-N-(2-(trifluoromethyl)pyridin-4-yl)-1H-pyrazole-5-carboxamide]
< 500	Cn1nc(-c2cccc3nccn23)c(C(F)(F)F)c1C(=O)Nc1cnc(-n2nccn2)c(Cl)c1 [Compound I-163]
< 500	[2H]C([2H])([2H])n1nc(-c2ccccc2)c(C(F)(F)F)c1C(=O)Nc1cnc(-n2nccn2)c(Cl)c1 [Compound I-165]
< 500	[2H]C([2H])([2H])n1nc(C(=O)Nc2cnc(-n3nccn3)c(Cl)c2)c(C(F)(F)F)c1-c1ccccc1 [Compound I-166]
< 500	[2H]C([2H])([2H])n1nc(-c2ccccc2)c(C(F)(F)F)c1C(=O)Nc1cnc(-n2nccn2)c(C#N)c1 [Compound I-167]
< 500	CCn1nc(C(=O)Nc2cnc(-n3nccn3)c(Cl)c2)c(C(F)(F)F)c1-c1ccccc1 [Compound I-168]
< 500	CCn1nc(-c2ccccc2)c(C(F)(F)F)c1C(=O)Nc1cnc(-n2nccn2)c(Cl)c1 [Compound I-170]
500 to 2500	CN(C)CCn1nc(-c2ccccc2)c(C(F)(F)F)c1C(=O)Nc1cnc(-n2nccn2)c(Cl)c1 [Compound I-171, N-(5-chloro-6-(2H-1,2,3-triazol-2-yl)pyridin-3-yl)-1-(2-(dimethylamino)ethyl)-3-phenyl-4-(trifluoromethyl)-1H-pyrazole-5-carboxamide]
500 to 2500	COCCn1nc(-c2ccccc2)c(C(F)(F)F)c1C(=O)Nc1cnc(-n2nccn2)c(Cl)c1 [Compound I-172]
> 10000	COCCn1nc(C(=O)Nc2cnc(-n3nccn3)c(Cl)c2)c(C(F)(F)F)c1-c1ccccc1 [Compound I-173]
500 to 2500	COCCn1nc(-c2ccccc2)c(C(F)(F)F)c1C(=O)Nc1cnc(-n2nccn2)c(C#N)c1 [Compound I-174]
2500 to 10000	CN(C)CCn1nc(-c2ccccc2)c(C(F)(F)F)c1C(=O)Nc1cnc(-n2nccn2)c(C#N)c1 [Compound I-175]
2500 to 10000	O=C(Nc1cnc(-n2nccn2)c(Cl)c1)c1c(C(F)(F)F)c(-c2ccccc2)nn1C1COC1 [Compound I-176]
